Source: patent publication US20240398889A1, “NUTRACEUTICAL COMPOSITION AND METHOD FOR THE PROTECTION OF HUMAN ARTERIAL ENDOTHELIAL CELLS FROM ENDOTHELIAL CELL DYSFUNCTION” (K.L.R.M., LLC, priority 2022, published 2024)

What was measured:
[1] = system: human umbilical arterial endothelial cells (HUAEC); test: cGMP expression by colorimetric ELISA in HUAEC; type: cell-based; conditions: 24 hours; for reduction of cGMP expression compared to COMP-4 incubation alone: inhibitor co-incubated with COMP-4 0.69 mg/ml; for reduction of cGMP expression compared to COMP-4 incubation alone / cGMP expression, change vs control: L-NIL 2 μM; for cGMP expression, change vs control: agent alone, IBMX 0.4 mM
Description: Cells were then scraped, homogenized by pipetting, and centrifuged at 1,000 g for 10 minutes. […] The enzymatic reaction product was determined by spectrophotometry at 405 nm absorbance and expressed as pmol/mg protein.

[2] = system: human umbilical arterial endothelial cells (HUAEC); test: Intracellular NO by Muse Nitric Oxide Kit (DAX-J2 Orange); type: cell-based; conditions: L-NAME added to COMP-4, 24 hours
Description: To corroborate the results obtained by flow cytometry, another system for detecting intracellular NO was used, the Muse® Nitric Oxide Kit (cat #MCH100112, Luminex, Austin, TX). HUAEC were seeded at 1.0×10^6 cells/ml in T25 flasks, treated with vehicle, COMP-4 with or without L-NAME, or LPS (positive control), and incubated for 24 hours. Cells were then suspended in assay buffer at 10^6 cells/ml. 100 μL of working solution consisting of the Muse Nitric Oxide Reagent (DAX-J2 Orange) was added to 10 μL of cells in suspension. Samples were incubated for 30 minutes in a 37° C. incubator with 5% CO2. After the incubation, 90 μL of the Muse 7-AAD working solution (dead cell marker) was added to each tube and incubated at room temperature for 5 min, protected from light. Intracellular NO was measured using the Guava® Muse Cell Analyzer, calibrated with negative and positive controls. Generated plots were divided into quadrants of nitric oxide positivity (+or −) and dead cells (+or −). From each plot, the lower-right quadrant of nitric oxide (+) and dead cell marker (−) was used to express intracellular NO results as the percent positive NO in live cells, which was compared between different treatments.

SMILES | reduction of cGMP expression ([1]; inhibitor alone, L-NAME 3 μM, vs control) [%] | reduction of cGMP expression compared to COMP-4 incubation alone ([1]; L-NAME 3 μM) [%] | reduction of DAX-J2 Orange live cells compared to COMP-4 alone [2] [%] | cGMP expression, change vs control [1]
COC(=O)[C@@H](N)CCCNC(=N)N[N+](=O)[O-] [L-NAME, L-N^G-Nitro arginine methyl ester] | 40 | 57 | 46 | 
CC(=N)NCCCC[C@H](N)C(=O)O.Cl [L-NIL, N^6-(1-Iminoethyl)-lysine, hydrochloride] |  | 44 |  | no inhibition of cGMP expression
CC(C)Cn1c(=O)n(C)c(=O)c2[nH]cnc21 [IBMX, 3-isobutyl-1-methylxanthine] |  |  |  | increase in cGMP expression
